Experimental findings from patent EP0918774B9, “ANDROGEN RECEPTOR MODULATOR COMPOUNDS AND METHODS” (LIGAND PHARMACEUTICALS INCORPORATED, priority 1996, dated 1997) are described below.

The structures appear in SMILES notation. Read-outs that look alike come from different tables or passages of the source.

Assay [1] deals with T1, human AR (Homo sapiens, UniProt P10275).
T1 construct: expressed in transfected cells; host or cells: CV-1 cells (African green monkey kidney fibroblasts), transient calcium phosphate transfection
T1 sequence (P10275 1-920): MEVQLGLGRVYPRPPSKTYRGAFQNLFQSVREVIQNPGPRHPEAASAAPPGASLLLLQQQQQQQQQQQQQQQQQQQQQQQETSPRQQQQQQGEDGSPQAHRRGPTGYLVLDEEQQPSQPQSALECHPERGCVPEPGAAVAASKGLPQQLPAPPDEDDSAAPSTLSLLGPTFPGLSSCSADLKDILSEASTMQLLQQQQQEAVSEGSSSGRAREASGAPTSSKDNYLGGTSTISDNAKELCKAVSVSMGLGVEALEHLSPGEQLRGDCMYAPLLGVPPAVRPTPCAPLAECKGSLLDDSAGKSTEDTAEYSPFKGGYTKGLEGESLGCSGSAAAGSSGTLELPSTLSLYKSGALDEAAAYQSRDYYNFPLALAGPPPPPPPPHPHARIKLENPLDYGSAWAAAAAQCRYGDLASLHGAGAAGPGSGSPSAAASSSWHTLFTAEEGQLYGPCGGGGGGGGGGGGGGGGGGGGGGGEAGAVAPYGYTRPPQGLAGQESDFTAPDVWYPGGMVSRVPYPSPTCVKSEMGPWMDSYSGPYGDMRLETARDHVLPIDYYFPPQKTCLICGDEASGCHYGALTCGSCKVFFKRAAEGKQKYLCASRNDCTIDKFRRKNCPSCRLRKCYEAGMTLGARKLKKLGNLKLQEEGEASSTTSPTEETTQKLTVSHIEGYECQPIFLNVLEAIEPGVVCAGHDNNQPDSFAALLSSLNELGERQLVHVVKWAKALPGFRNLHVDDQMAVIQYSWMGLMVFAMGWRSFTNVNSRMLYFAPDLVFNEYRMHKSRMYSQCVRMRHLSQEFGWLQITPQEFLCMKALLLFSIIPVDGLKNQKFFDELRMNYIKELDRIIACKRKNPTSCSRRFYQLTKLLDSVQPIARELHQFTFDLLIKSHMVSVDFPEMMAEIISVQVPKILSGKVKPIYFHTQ
As to the kind of experiment: cell-based. The format is cell-based. An excerpt:
The co-transfection assay provides a method for identifying functional agonists and partial agonists which mimic, or antagonists which inhibit, the effect of native hormones, and quantifying their activity for responsive IR proteins. In this regard, the co-transfection assay mimics an in vivo system in the laboratory. Importantly, activity in the co-transfection assay correlates very well with known in vivo activity, such that the co-transfection assay functions as a qualitative and quantitative predictor of a tested compounds in vivo pharmacology. See, e.g., T. Berger et al. 41 J. Steroid Biochem. Molec.
(§1) CV-1 cells (African green monkey kidney fibroblasts) were cultured in the presence of Dulbecco's Modified Eagle Medium (DMEM) supplemented with 10% charcoal resinstripped fetal bovine serum then transferred to 96-well microtiter plates one day prior to transfection.
The reporter plasmid, MTV-LUC, contains the cDNA for firefly luciferase (LUC) under control of the mouse mammary tumor virus (MTV) long terminal repeat, a conditional promoter containing an androgen response element. See e.g, Berger et al. supra. In addition, pRS-β-Gal, coding for constitutive expression of E. colβ-galactosidase (β-Gal), was included as an internal control for evaluation of transfection efficiency and compound toxicity.
(§2) Three to four replicates were used for each sample.
(§3) After 40 hours, the cells were washed with PBS, lysed with a Triton X-100-based buffer and assayed for LUC and β-Gal activities using a luminometer or spectrophotometer, respectively. For each replicate, the normalized response (NR) was calculated as: LUC response/β-Gal rate where β-Gal rate = β-Gal•1x10^-5/β-Gal incubation time.

Assay [2] has as its target T1, human AR. As to the kind of experiment: cell-based. Format: binding.
The next assay addresses T2, ER (Homo sapiens, UniProt P03372).
T2 construct: expressed in transfected cells; host or cells: CV-1 cells
Briefly: Co-transfection assay, ER agonist mode. Format: cell-based. The method, then:
as §1, §2, §3

The next assay concerns the target T3, PR (Homo sapiens, UniProt P06401).
T3 sequence (P06401 1-933): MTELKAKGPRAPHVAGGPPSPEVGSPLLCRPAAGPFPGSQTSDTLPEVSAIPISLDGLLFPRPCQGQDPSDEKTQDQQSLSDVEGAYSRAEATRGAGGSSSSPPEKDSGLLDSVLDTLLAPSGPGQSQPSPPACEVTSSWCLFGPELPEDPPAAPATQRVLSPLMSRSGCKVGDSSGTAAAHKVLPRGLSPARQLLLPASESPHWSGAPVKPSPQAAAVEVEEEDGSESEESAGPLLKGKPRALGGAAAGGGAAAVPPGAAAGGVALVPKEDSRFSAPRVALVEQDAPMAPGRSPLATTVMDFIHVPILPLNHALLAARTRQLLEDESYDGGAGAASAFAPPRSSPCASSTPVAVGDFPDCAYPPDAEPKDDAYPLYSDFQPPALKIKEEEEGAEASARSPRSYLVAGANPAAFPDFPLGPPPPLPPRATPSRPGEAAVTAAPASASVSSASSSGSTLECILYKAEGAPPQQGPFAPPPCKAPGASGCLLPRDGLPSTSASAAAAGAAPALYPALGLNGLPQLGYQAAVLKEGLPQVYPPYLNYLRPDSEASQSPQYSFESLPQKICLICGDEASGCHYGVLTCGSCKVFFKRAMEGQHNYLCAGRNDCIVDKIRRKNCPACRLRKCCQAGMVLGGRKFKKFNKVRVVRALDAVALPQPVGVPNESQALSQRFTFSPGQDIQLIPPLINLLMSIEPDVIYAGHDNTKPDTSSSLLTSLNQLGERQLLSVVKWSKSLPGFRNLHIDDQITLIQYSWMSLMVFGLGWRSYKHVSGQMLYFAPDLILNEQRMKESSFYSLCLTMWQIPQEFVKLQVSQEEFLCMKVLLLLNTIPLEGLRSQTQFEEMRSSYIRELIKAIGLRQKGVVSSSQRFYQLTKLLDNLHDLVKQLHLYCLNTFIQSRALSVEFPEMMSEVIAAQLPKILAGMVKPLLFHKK
As to the kind of experiment: cell-based.

T2 sequence (P03372 whole entry): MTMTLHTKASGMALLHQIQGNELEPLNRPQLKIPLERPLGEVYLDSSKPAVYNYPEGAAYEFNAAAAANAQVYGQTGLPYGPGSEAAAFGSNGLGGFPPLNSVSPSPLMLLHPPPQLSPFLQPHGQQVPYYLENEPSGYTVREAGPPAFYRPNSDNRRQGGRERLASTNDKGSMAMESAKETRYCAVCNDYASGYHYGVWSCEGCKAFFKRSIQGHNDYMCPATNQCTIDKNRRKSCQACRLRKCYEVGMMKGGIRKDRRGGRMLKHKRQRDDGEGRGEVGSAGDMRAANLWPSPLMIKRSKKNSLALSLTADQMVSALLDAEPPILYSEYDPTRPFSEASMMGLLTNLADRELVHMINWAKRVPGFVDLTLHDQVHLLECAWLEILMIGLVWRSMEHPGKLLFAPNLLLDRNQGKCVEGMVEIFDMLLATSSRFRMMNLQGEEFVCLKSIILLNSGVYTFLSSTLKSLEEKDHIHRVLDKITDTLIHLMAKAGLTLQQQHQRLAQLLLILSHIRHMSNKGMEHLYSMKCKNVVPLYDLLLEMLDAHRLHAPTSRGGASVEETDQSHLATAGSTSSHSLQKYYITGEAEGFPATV

As for `CC12CCCN1c1cc3[nH]c(=O)c(F)c(C(F)(F)F)c3cc1CC2` (racemic) [Compound 102, (R/S)-3-Fluoro-6,7,7a,11-tetrahydro-7a-methyl-4-trifluoromethyl-2-pyridono[5,6-g]pyrrolidino[1,2-a]quinoline], the EC50 was > 10 µM on human AR [1]; > 10 µM at human AR [1] (read-out: AR Potency Agon, Table 2, na = not active); > 10 µM at ER. In addition, the midpoint of inhibition at human AR [1], the IC50, lay at 0.029 µM. At human AR [1] (% of maximal inhibition, fixed DHT at EC50, na = not active), the “AR Antagonist CV-1 Cells Efficacy (%)” value was 86%. Besides, at human AR [1] (percent maximal response relative to reference agonist DHT, na = not active), the “AR Agonist CV-1 Cells Efficacy (%)” value is “na (not active (i.e. efficacy of <20 and potency of >10,000))”. Further, the affinity at human AR [2] corresponds to a Ki of 0.078 µM.

Consider `CC12CCCN1c1cc3nc(O)cc(C(F)(F)F)c3cc1CC2` (racemic) [Compound 101, (R/S)-6,7,7a,11-Tetrahydro-7a-methyl-4-trifluoromethyl-2-pyridono[5,6-g]pyrrolidino[1,2-a]quinoline], for which the “AR Agonist CV-1 Cells Efficacy (%)” value at human AR [1] was “na (key: na: not active (i.e. efficacy of <20 and potency of >10,000))”. The “AR Antagonist CV-1 Cells Efficacy (%)” value on human AR [1] was determined as 80%. In addition, the EC50 at human AR [1], on human AR [1] (read-out: AR Potency Agon) and at ER was > 10 µM each time. The IC50 (commonly the concentration that gives 50% inhibition) at human AR [1] was 0.362 µM; on PR it was > 10 µM. Further, the Ki – broadly, a measure of affinity in units of concentration, obtained from inhibition or displacement – on human AR [2] (read-out: AR Binding Ki) amounted to 0.169 µM.
